This is an account of results in patent US8580813B2, “Cyclic azaindole-3-carboxamides, their preparation and their use as pharmaceuticals” (Sanofi, priority 2008, dated 2013).

The test addresses T1, Recombinant human renin (Homo sapiens, UniProt P00797).
T1 construct: purchased Cayman 10006217
T1 sequence (P00797 67-406): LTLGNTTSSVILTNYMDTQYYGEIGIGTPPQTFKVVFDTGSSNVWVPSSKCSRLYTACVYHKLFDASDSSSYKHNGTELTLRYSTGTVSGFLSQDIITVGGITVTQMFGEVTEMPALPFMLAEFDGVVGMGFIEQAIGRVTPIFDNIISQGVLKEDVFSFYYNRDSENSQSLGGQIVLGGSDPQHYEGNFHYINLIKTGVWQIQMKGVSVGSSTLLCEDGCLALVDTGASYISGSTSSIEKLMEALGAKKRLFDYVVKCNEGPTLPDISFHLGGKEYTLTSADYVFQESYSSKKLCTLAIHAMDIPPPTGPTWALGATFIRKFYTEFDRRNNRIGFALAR
Description: Inhibition of renin (fluorogenic peptide substrate). The class given is biochemical. The following applies: recombinant human renin 5 nM, substrate 10 μM, 2 h at room temperature, Tris buffer pH 8; compounds tested as the obtained salt. As for the experimental part:
M-2050; […] The increase in fluorescence, which is due to fluorescence resonance energy transfer, was recorded at an excitation wavelength of 330 nm and an emission wavelength of 485 nm in a microplate spectrofluorometer. Inhibitory concentrations IC50 were calculated from the percentage of inhibition of renin activity as a function of the concentration of the test compound. […] Representative IC50 values, which were determined with the compounds in the form of the obtained salt indicated in the examples above, are listed in table 8.

One may read the IC50 as the concentration that gives 50% inhibition.

Consider `CCCc1ccnc2c1c(C(=O)N1CCNCC1)c(Oc1cc(F)ccc1C)n2-c1ccccc1` [Example 133], for which the IC50 turned out to be 1850 nM.

In the case of `Cc1cccc(C)c1Oc1c(C(=O)N2CCNCC2)c2cnc(O)cc2n1C1CCCCC1` [Example 49, [1-Cyclohexyl-2-(2,6-dimethyl-phenoxy)-6-hydroxy-1H-pyrrolo[3,2-c]pyridin-3-yl]-piperazin-1-yl-methanone], the IC50 turned out to be 80 nM.

`Cc1ccc(F)c(C)c1Oc1c(C(=O)N2CCNCC2)c2ccncc2n1-c1ccccc1` [Example 37, [2-(3-Fluoro-2,6-dimethyl-phenoxy)-1-phenyl-1H-pyrrolo[2,3-c]pyridin-3-yl]-piperazin-1-yl-methanone]: the IC50 was 1.7 nM.

For `CC(c1ccccc1)c1c(C(=O)N2CCNCC2)c2ncccc2n1-c1ccccc1` (stereo not shown) [Example 50, [1-Phenyl-2-(1-phenyl-ethyl)-1H-pyrrolo[3,2-b]pyridin-3-yl]-piperazin-1-yl-methanone], the IC50 amounted to 1000 nM.

For `Cc1ccccc1Cc1c(C(=O)N2CCNCC2)c2ncccc2n1-c1ccccc1` [Example 3, [2-(2-Methyl-benzyl)-1-phenyl-1H-pyrrolo[3,2-b]pyridin-3-yl]-piperazin-1-yl-methanone], the IC50 came to 120 nM.

On to `COc1ccc2c(C(=O)N3CCNCC3)c(Oc3c(C)cccc3C)n(-c3ccccc3)c2n1` [Example 134], for which the IC50 turned out to be 3 nM.

Take `CCOc1cnc2c(C(=O)N3CCNCC3)c(Oc3c(C)cccc3C)n(-c3ccccc3)c2c1` [Example 54, [2-(2,6-Dimethyl-phenoxy)-6-ethoxy-1-phenyl-1H-pyrrolo[3,2-b]pyridin-3-yl]-piperazin-1-yl-methanone]: the IC50 was found to be 77 nM.

As to `Cc1c(F)cccc1Cc1nccc2c(C(=O)N3CCNCC3)c(Cc3cccc(F)c3C)n(-c3ccccc3)c12` [Example 40, [2,7-Bis-(3-fluoro-2-methyl-benzyl)-1-phenyl-1H-pyrrolo[2,3-c]pyridin-3-yl]-piperazin-1-yl-methanone], the IC50 was 5.1 nM.

As for `COc1cc2c(C(=O)N3CCNCC3)c(Cc3cccc(F)c3C)n(-c3ccccc3)c2cn1` [Example 22, [2-(3-Fluoro-2-methyl-benzyl)-5-methoxy-1-phenyl-1H-pyrrolo[2,3-c]pyridin-3-yl]-piperazin-1-yl-methanone], the IC50 was found to be 850 nM.

`Cc1ccccc1Oc1c(C(=O)N2CCNCC2)c2ncccc2n1-c1ccccc1` [Example 1, [1-Phenyl-2-(2-methyl-phenoxy)-1H-pyrrolo[3,2-b]pyridin-3-yl]-piperazin-1-yl-methanone]: the IC50 came out at 250 nM.

In the case of `COC[C@H]1CN(C(=O)c2c(Oc3c(C)cccc3C)n(-c3ccccc3)c3cccnc23)CCN1` [Example 89], the IC50 was 290 nM.

As to `Cc1cccc(C)c1Oc1c(C(=O)N2CCNCC2Cc2ccccc2)c2ncccc2n1-c1ccccc1` (stereo not shown) [Example 106], the IC50 turned out to be 420 nM.

As to `Cc1cccc(C)c1Oc1c(C(=O)N2CCNCC2)c2ncc(OCC(=O)O)cc2n1-c1ccccc1` [Example 57, [2-(2,6-Dimethyl-phenoxy)-1-phenyl-3-(piperazine-1-carbonyl)-1H-pyrrolo[3,2-b]pyridin-6-yloxy]-acetic acid], the IC50 was 110 nM.

`COc1cc2c(cn1)c(C(=O)N1CCN[C@@H](C)C1)c(Cc1cccc(F)c1C)n2C1CCCCC1` [Example 113]: the IC50 stood at 320 nM.

Turning to `Cc1ccc(F)cc1Oc1c(C(=O)N2CCNCC2)c2ccnc(Cl)c2n1-c1ccccc1` [Example 38, [7-Chloro-2-(5-fluoro-2-methyl-phenoxy)-1-phenyl-1H-pyrrolo[2,3-c]pyridin-3-yl]-piperazin-1-yl-methanone], the IC50 amounted to 320 nM.

`Cc1ccc(F)cc1Sc1c(C(=O)N2CCN[C@@H](C)C2)c2ncccc2n1-c1ccccc1` [Example 139, [2-(5-Fluoro-2-methyl-phenylsulfanyl)-1-phenyl-1H-pyrrolo[3,2-b]pyridin-3-yl]-((S)-3-methyl-piperazin-1-yl)-methanone]: the IC50 turned out to be 190 nM.

`CNC(=O)CC1CN(C(=O)c2c(Oc3c(C)cccc3C)n(-c3ccccc3)c3cccnc23)CCN1` (stereo not shown) [Example 59, 2-{4-[2-(2,6-Dimethyl-phenoxy)-1-phenyl-1H-pyrrolo[3,2-b]pyridine-3-carbonyl]-piperazin-2-yl}-N-methyl-acetamide]: the IC50 came out at 70 nM.

On to `Cc1c(F)cccc1Oc1c(C(=O)N2CCNCC2)c2cccnc2n1-c1ccccc1` [Example 129], for which the IC50 came to 170 nM.

Consider `Cc1c(F)cccc1Cc1c(C(=O)N2CCN[C@@H](CO)C2)c2cnc(O)cc2n1C1CCCCC1` [Example 116], for which the IC50 worked out at 1100 nM.

Consider `COC(=O)CC1CN(C(=O)c2c(Oc3c(C)cccc3C)n(-c3ccccc3)c3cccnc23)CCN1` (stereo not shown) [Example 58, {4-[2-(2,6-Dimethyl-phenoxy)-1-phenyl-1H-pyrrolo[3,2-b]pyridine-3-carbonyl]-piperazin-2-yl}-acetic acid methyl ester], for which the IC50 was 57 nM.

As for `O=C(c1c(Cc2c(F)cccc2Cl)n(-c2ccccc2)c2ccncc12)N1CCNCC1` [Example 13, [2-(2-Chloro-6-fluoro-benzyl)-1-phenyl-1H-pyrrolo[3,2-c]pyridin-3-yl]-piperazin-1-yl-methanone], the IC50 was 100 nM.

For the compound `Cc1c(F)cccc1Cc1c(C(=O)N2CCNCC2)c2cc(O)cnc2n1-c1ccccc1` [Example 31, [2-(3-Fluoro-2-methyl-benzyl)-5-hydroxy-1-phenyl-1H-pyrrolo[2,3-b]pyridin-3-yl]-piperazin-1-yl-methanone], the IC50 turned out to be 5.6 nM.

Consider `Cc1cccc(C)c1Oc1c(C(=O)N2CCN[C@@H](CC(C)C)C2)c2ncccc2n1-c1ccccc1` [Example 97], for which the IC50 came out at 7000 nM.

For the compound `Cc1c(F)cccc1Cc1c(C(=O)N2CCNCC2)c2cccnc2n1-c1ccccc1` [Example 27, [2-(3-Fluoro-2-methyl-benzyl)-1-phenyl-1H-pyrrolo[2,3-b]pyridin-3-yl]-piperazin-1-yl-methanone], the half-inhibitory concentration (IC50) was 86 nM.

Consider `Cc1c(F)cc(F)cc1Oc1c(C(=O)N2CCNCC2)c2ncccc2n1-c1ccccc1` [Example 111], for which the IC50 turned out to be 650 nM.
